Reference: patent US11793849B2, “Method of Chinese herbal medicine extract used for treating multiple diseases caused by drug resistant bacteria infection” (priority 2016, dated 2023)
Values belong to the molecule of their own block, whether it stands above or below them.

Tested on: MDRPA
Assay: Checkerboard assay (combined-use MIC, FIC)
Assay type: cell-based, Pseudomonas aeruginosa
Settings: for FIC, all strains / MIC50 of the antibiotic after combined use / MIC90 of the antibiotic after combined use / reduction of the antibiotic's MIC50 vs single use / reduction of the antibiotic's MIC90 vs single use / share of strains with FIC ≤ 0.5: 20 MDRPAs
Protocol: Test methods of the sensibilization effects of the test product to similar antibiotics: it is operated by referring to a checkerboard assay recommended by NCCLS.
The checkerboard assay is performed in a 96-pore sterile culture plate.
Calculation of a Fractional Inhibitory Concentration (FIC): FIC=S20b combined-use MIC/S20b single-use MIC+antibiotic combined-use MIC/antibiotic single-use MIC. By calculating the FIC, the combined antibacterial interaction between the EA and the antibiotic is evaluated, with synergistic effect for FIC≤0.5, additive effect for 0.5<FIC≤1, indifferent effect for 1<FIC≤2 and antagonistic effect for FIC>2. According to a sterile growth pore, the optimum concentration ratio between the EA and the antibiotic is founded out. At last, the effect of the EA to strengthen the efficacy of the antibiotic is evaluated.

[1] = antibiotic with 10% ethanol extract
[2] = antibiotic with 60% ethanol extract
[3] = antibiotic with 95% ethanol extract
[4] = antibiotic with EA (water extract)

SMILES: NCC[C@H](O)C(=O)N[C@@H]1C[C@H](N)[C@@H](O[C@H]2O[C@H](CN)[C@@H](O)[C@H](O)[C@H]2O)[C@H](O)[C@H]1O[C@H]1O[C@H](CO)[C@@H](O)[C@H](N)[C@H]1O [AMK, Amikacin]
FIC, all strains [1]: ≤ 2 | MIC50 of the antibiotic after combined use [1]: 0.0625 mg/L | MIC90 of the antibiotic after combined use [1]: 4 mg/L | reduction of the antibiotic's MIC50 vs single use [1]: 93.75% | reduction of the antibiotic's MIC90 vs single use [1]: 87.5% | share of strains with FIC ≤ 0.5 [1]: 30% | FIC, all strains [2]: ≤ 2 | MIC50 of the antibiotic after combined use [2]: 0.0625 mg/L | MIC90 of the antibiotic after combined use [2]: 2 mg/L | reduction of the antibiotic's MIC50 vs single use [2]: 93.75% | reduction of the antibiotic's MIC90 vs single use [2]: 93.75% | share of strains with FIC ≤ 0.5 [2]: 20% | FIC, all strains [3]: ≤ 2 | MIC50 of the antibiotic after combined use [3]: 0.12 mg/L | MIC90 of the antibiotic after combined use [3]: 4 mg/L | reduction of the antibiotic's MIC50 vs single use [3]: 87.5% | reduction of the antibiotic's MIC90 vs single use [3]: 87.5% | share of strains with FIC ≤ 0.5 [3]: 40% | FIC, all strains [4]: ≤ 2 | MIC50 of the antibiotic after combined use [4]: 0.0625 mg/L | MIC90 of the antibiotic after combined use [4]: 2 mg/L | reduction of the antibiotic's MIC50 vs single use [4]: 93.75% | reduction of the antibiotic's MIC90 vs single use [4]: 93.75% | share of strains with FIC ≤ 0.5 [4]: 35% | combined-use MIC (strain P1, EA (P. clypearia water extract) combined with AMK): 0.0625 mg/L | combined-use MIC (strain P2, EA (P. clypearia water extract) combined with AMK): 0.0625 mg/L | combined-use MIC (strain P3, EA (P. clypearia water extract) combined with AMK): 1 mg/L | combined-use MIC (strain P4, EA (P. clypearia water extract) combined with AMK): 0.5 mg/L | combined-use MIC (strain P5, EA (P. clypearia water extract) combined with AMK): 0.0625 mg/L | combined-use MIC (strain P6, EA (P. clypearia water extract) combined with AMK): 64 mg/L | combined-use MIC (strain P7, EA (P. clypearia water extract) combined with AMK): 0.0625 mg/L | combined-use MIC (strain P8, EA (P. clypearia water extract) combined with AMK): 0.5 mg/L | combined-use MIC (strain P9, EA (P. clypearia water extract) combined with AMK): 0.0625 mg/L | combined-use MIC (strain P10, EA (P. clypearia water extract) combined with AMK): 1 mg/L | combined-use MIC (strain P11, EA (P. clypearia water extract) combined with AMK): 0.5 mg/L | combined-use MIC (strain P12, EA (P. clypearia water extract) combined with AMK): 8 mg/L | combined-use MIC (strain P13, EA (P. clypearia water extract) combined with AMK): 0.0625 mg/L | combined-use MIC (strain P14, EA (P. clypearia water extract) combined with AMK): 0.0625 mg/L | combined-use MIC (strain P15, EA (P. clypearia water extract) combined with AMK): 0.0625 mg/L | combined-use MIC (strain P16, EA (P. clypearia water extract) combined with AMK): 0.0625 mg/L | combined-use MIC (strain P17, EA (P. clypearia water extract) combined with AMK): 0.0625 mg/L | combined-use MIC (strain P18, EA (P. clypearia water extract) combined with AMK): 4 mg/L | combined-use MIC (strain P19, EA (P. clypearia water extract) combined with AMK): 0.0625 mg/L | combined-use MIC (strain P20, EA (P. clypearia water extract) combined with AMK): 1 mg/L

MIC50 of the antibiotic after combined use [1]: 4 mg/L | MIC90 of the antibiotic after combined use [1]: 256 mg/L | reduction of the antibiotic's MIC50 vs single use [1]: 93.75% | reduction of the antibiotic's MIC90 vs single use [1]: 50% | MIC50 of the antibiotic after combined use [2]: 4 mg/L | MIC90 of the antibiotic after combined use [2]: 256 mg/L | reduction of the antibiotic's MIC50 vs single use [2]: 93.75% | reduction of the antibiotic's MIC90 vs single use [2]: 50% | MIC50 of the antibiotic after combined use [3]: 4 mg/L | MIC90 of the antibiotic after combined use [3]: 128 mg/L | reduction of the antibiotic's MIC50 vs single use [3]: 93.75% | reduction of the antibiotic's MIC90 vs single use [3]: 75% | MIC50 of the antibiotic after combined use [4]: 0.5 mg/L | MIC90 of the antibiotic after combined use [4]: 256 mg/L | reduction of the antibiotic's MIC50 vs single use [4]: 99.2% | reduction of the antibiotic's MIC90 vs single use [4]: 50% | combined-use MIC (strain P1, EA (P. clypearia 10% ethanol extract) combined with CFP): 32 mg/L | combined-use MIC (strain P1, EA (P. clypearia water extract) combined with CFP): 32 mg/L | combined-use MIC (strain P2, EA (P. clypearia 10% ethanol extract) combined with CFP): 128 mg/L | combined-use MIC (strain P2, EA (P. clypearia water extract) combined with CFP): 128 mg/L | combined-use MIC (strain P3, EA (P. clypearia 10% ethanol extract) combined with CFP): 2 mg/L | combined-use MIC (strain P3, EA (P. clypearia water extract) combined with CFP): 2 mg/L | combined-use MIC (strain P4, EA (P. clypearia 10% ethanol extract) combined with CFP): 4 mg/L | combined-use MIC (strain P4, EA (P. clypearia water extract) combined with CFP): 4 mg/L | combined-use MIC (strain P5, EA (P. clypearia 10% ethanol extract) combined with CFP): 256 mg/L | combined-use MIC (strain P5, EA (P. clypearia water extract) combined with CFP): 256 mg/L | combined-use MIC (strain P6, EA (P. clypearia 10% ethanol extract) combined with CFP): 256 mg/L | combined-use MIC (strain P6, EA (P. clypearia water extract) combined with CFP): 256 mg/L | combined-use MIC (strain P7, EA (P. clypearia 10% ethanol extract) combined with CFP): 8 mg/L | combined-use MIC (strain P7, EA (P. clypearia water extract) combined with CFP): 16 mg/L | combined-use MIC (strain P8, EA (P. clypearia 10% ethanol extract) combined with CFP): 0.5 mg/L | combined-use MIC (strain P8, EA (P. clypearia water extract) combined with CFP): 0.5 mg/L | combined-use MIC (strain P9, EA (P. clypearia 10% ethanol extract) combined with CFP): 32 mg/L | combined-use MIC (strain P9, EA (P. clypearia water extract) combined with CFP): 32 mg/L | combined-use MIC (strain P10, EA (P. clypearia 10% ethanol extract) combined with CFP): 2 mg/L | combined-use MIC (strain P10, EA (P. clypearia water extract) combined with CFP): 0.5 mg/L | combined-use MIC (strain P11, EA (P. clypearia 10% ethanol extract) combined with CFP): 4 mg/L | combined-use MIC (strain P11, EA (P. clypearia water extract) combined with CFP): 4 mg/L | combined-use MIC (strain P12, EA (P. clypearia 10% ethanol extract) combined with CFP): 2 mg/L | combined-use MIC (strain P12, EA (P. clypearia water extract) combined with CFP): 0.5 mg/L | combined-use MIC (strain P13, EA (P. clypearia 10% ethanol extract) combined with CFP): 32 mg/L | combined-use MIC (strain P13, EA (P. clypearia water extract) combined with CFP): 32 mg/L | combined-use MIC (strain P14, EA (P. clypearia 10% ethanol extract) combined with CFP): 0.25 mg/L | combined-use MIC (strain P14, EA (P. clypearia water extract) combined with CFP): 0.5 mg/L | combined-use MIC (strain P15, EA (P. clypearia 10% ethanol extract) combined with CFP): 8 mg/L | combined-use MIC (strain P15, EA (P. clypearia water extract) combined with CFP): 16 mg/L | combined-use MIC (strain P16, EA (P. clypearia 10% ethanol extract) combined with CFP): 256 mg/L | combined-use MIC (strain P16, EA (P. clypearia water extract) combined with CFP): 256 mg/L | combined-use MIC (strain P17, EA (P. clypearia 10% ethanol extract) combined with CFP): 0.5 mg/L | combined-use MIC (strain P17, EA (P. clypearia water extract) combined with CFP): 0.5 mg/L | combined-use MIC (strain P18, EA (P. clypearia 10% ethanol extract) combined with CFP): 128 mg/L | combined-use MIC (strain P18, EA (P. clypearia water extract) combined with CFP): 128 mg/L | combined-use MIC (strain P19, EA (P. clypearia 10% ethanol extract) combined with CFP): 0.5 mg/L | combined-use MIC (strain P19, EA (P. clypearia water extract) combined with CFP): 0.5 mg/L | combined-use MIC (strain P20, EA (P. clypearia 10% ethanol extract) combined with CFP): 1 mg/L | combined-use MIC (strain P20, EA (P. clypearia water extract) combined with CFP): 0.5 mg/L
SMILES: CCN1CCN(C(=O)N[C@@H](C(=O)N[C@@H]2C(=O)N3C(C(=O)O)=C(CSc4nnnn4C)CS[C@H]23)c2ccc(O)cc2)C(=O)C1=O [CFP, Cefoperazone]
FIC, all strains [1]: ≤ 2 | share of strains with FIC ≤ 0.5 [1]: 35% | FIC, all strains [2]: ≤ 2 | share of strains with FIC ≤ 0.5 [2]: 20% | FIC, all strains [3]: ≤ 2 | share of strains with FIC ≤ 0.5 [3]: 40% | FIC, all strains [4]: ≤ 2 | share of strains with FIC ≤ 0.5 [4]: 35%
